Measured values from US20190300882A1, “METHODS OF TREATING NEUROBLASTOMA AND REAGENTS THEREFOR” (GARVAN INSTITUTE OF MEDICAL RESEARCH, priority 2016, published 2019).

Legend:
Format in all cases: cell-based
[1] = tested on: KELLY cells; test: Secondary validation screen of synthetic lethal miRNAs with low dose IC30 chemotherapy, cell viability; conditions: for Secondary screen Viability (% of control) Kelly DXR: miRNA mimic + low dose IC30 doxorubicin; for Secondary screen Viability (% of control) Kelly VCR: miRNA mimic + low dose IC30 vincristine; for Secondary screen Viability (% of control) Kelly Vehicle: miRNA mimic + vehicle
Method: (§1) KELLY cells were grown in 10% FCS/RPMI as described in Example 1 and reverse transfected in 384-well plate format with 25 nM of a miRNA from the Dharmacon microRNA mimic Library (version 16.0) using liquid-handling robot Calliper Sciclone ALH3000 according to the conditions described in Table 3. After 24 hours, media was changed using a BioTek 406. Media was again changed after 48 hours and 96 hours using a BioTek 406, and at each of those time points low dose IC30 of vincristine or doxorubicin was added to the culture. 144 hours post-transfection, cell viability was determined using CellTiter-Glo luminescent assay (Promega) at 1:2 dilution. Luminescence measurements were taken on the Synergy H4 high-throughput multimode microplate reader as described in Example 1. All screens were performed in duplicates. The experimental design and timeline for this screen are illustrated in FIGS. 5 and 6, respectively.
(§2) The secondary validation screens were performed in accordance with the genome-wide screens described in Example 1 and Example 2, respectively, with the exception that an additional MYCN-amplified neuroblastoma cell line (SK-N-DZ) was added to each screen.
(§3) Furthermore, five additional non-active miRNAs discovered to have no measureable effect across all treatment groups of the genome-wide screen (‘non-lethal’ miRNAs) were included as negative controls.

[2] = tested on: SK-N-DZ MYCN-amplified neuroblastoma cell line; test: Secondary validation screen of synthetic lethal miRNAs with low dose IC30 chemotherapy, additional cell line; conditions: for Additional cell line Viability (% of control) SKNDZ DXR: miRNA mimic + low dose IC30 doxorubicin; for Additional cell line Viability (% of control) SKNDZ VCR: miRNA mimic + low dose IC30 vincristine; for Additional cell line Viability (% of control) SKNDZ Vehicle: miRNA mimic + vehicle
Method: as §1, §2, §3

[3] = tested on: KELLY cells; test: Primary miRNA mimic screen in combination with low dose IC30 of vincristine or doxorubicin, cell viability; conditions: for Primary screen Viability (% of control) Kelly DXR: miRNA mimic 25 nM + low dose IC30 doxorubicin; for Primary screen Viability (% of control) Kelly VCR: miRNA mimic 25 nM + low dose IC30 vincristine; for Primary screen Viability (% of control) Kelly Vehicle: miRNA mimic 25 nM + vehicle
Method: To systematically identify miRNAs that affect viability and survival of neuroblstoma cells in combination with chemotherapy, a further functional miRNA screen was performed using the 1200 miRNAs from the miRIDIAN miRNA mimic Library (version 16.0; Dharmacon) in combination with low dose IC30 of vincristine or doxorubicin in the two neuroblastoma cancer cell lines. In doing so, the inventors identified miRNAs which result in a lethal phenotype to neuroblastoma cells when administered in combination with low dose IC30 chemotherapy (hereinafter referred to as ‘synthetic lethal’ miRNAs). […] After 24 hours, media was changed using a BioTek 406. […] Luminescence measurements were taken on the Synergy H4 high-throughput multimode microplate reader as described in Example 1. All screens were performed in duplicates.

Substance | Secondary screen Viability (% of control) Kelly DXR [1] | Secondary screen Viability (% of control) Kelly VCR [1] | Secondary screen Viability (% of control) Kelly Vehicle [1] | Additional cell line Viability (% of control) SKNDZ DXR [2] | Additional cell line Viability (% of control) SKNDZ VCR [2] | Additional cell line Viability (% of control) SKNDZ Vehicle [2] | Primary screen Viability (% of control) Kelly DXR [3] | Primary screen Viability (% of control) Kelly VCR [3] | Primary screen Viability (% of control) Kelly Vehicle [3]
hsa-miR-449a (guide UGGCAGUGUAUUGUUAGCUGGU; chemistry not given here; listed as Homo sapiens) | 83 % of control | 35 % of control | 75 % of control | 49 % of control | 44 % of control | 71 % of control | 62 % of control | 22 % of control | 72 % of control
hsa-miR-3924 (AUAUGUAUAUGUGACUGCUACU; chemistry not given here; listed as Homo sapiens) | 46 % of control | 57 % of control | 75 % of control | 41 % of control | 81 % of control | 85 % of control | 35 % of control | 40 % of control | 72 % of control
hsa-miR-3151 (GGUGGGGCAAUGGGAUCAGGU; chemistry not given here; listed as Homo sapiens) | 65 % of control | 47 % of control | 102 % of control | 71 % of control | 72 % of control | 87 % of control | 40 % of control | 52 % of control | 102 % of control
hsa-miR-3646 (AAAAUGAAAUGAGCCCAGCCCA; chemistry not given here; listed as Homo sapiens) | 45 % of control | 72 % of control | 70 % of control | 52 % of control | 110 % of control | 101 % of control | 34 % of control | 55 % of control | 74 % of control
hsa-miR-34c-5p (AGGCAGUGUAGUUAGCUGAUUGC; chemistry not given here; listed as Homo sapiens) | 80 % of control | 18 % of control | 68 % of control | 34 % of control | 31 % of control | 53 % of control | 74 % of control | 36 % of control | 72 % of control
hsa-miR-3181 (AUCGGGCCCUCGGCGCCGG; chemistry not given here; listed as Homo sapiens) | 61 % of control | 96 % of control | 108 % of control | 38 % of control | 83 % of control | 91 % of control | 34 % of control | 57 % of control | 94 % of control
